{"source": "paper PMC11589570", "about": "“Critical assessment of LC3/GABARAP ligands used for degrader development and ligandability of LC3/GABARAP binding pockets” (Nature Communications, 2024)", "assay_in_all_cases": "FP assay with Cy5-labelled p62 LIR tracer (protein titration and tracer displacement)", "settings_in_all_cases": "replicates, listed as TH152", "key": {"GABARAPL1": {"biological_target": "GABARAPL1 (Homo sapiens, UniProt Q9H0R8)", "sequence (Q9H0R8 whole entry)": "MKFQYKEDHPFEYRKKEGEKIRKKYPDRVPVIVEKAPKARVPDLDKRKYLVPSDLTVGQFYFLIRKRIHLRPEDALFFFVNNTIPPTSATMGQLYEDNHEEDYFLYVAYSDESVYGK", "assay_type": "binding"}, "GABARAPL2": {"biological_target": "GABARAPL2 (Homo sapiens, UniProt P60520)", "sequence (P60520 whole entry)": "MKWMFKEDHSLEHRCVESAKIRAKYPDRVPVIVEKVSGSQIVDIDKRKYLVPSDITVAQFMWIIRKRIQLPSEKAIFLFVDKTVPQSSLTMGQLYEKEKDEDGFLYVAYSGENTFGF"}, "GABARAP": {"biological_target": "GABARAP (Homo sapiens, UniProt O95166)", "sequence (O95166 1-116)": "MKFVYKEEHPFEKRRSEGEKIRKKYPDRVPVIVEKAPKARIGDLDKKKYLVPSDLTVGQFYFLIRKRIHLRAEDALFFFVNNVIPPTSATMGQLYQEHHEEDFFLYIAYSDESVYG", "assay_type": "binding"}, "LC3C": {"biological_target": "LC3C (Homo sapiens, UniProt Q9BXW4)", "sequence (Q9BXW4 1-126)": "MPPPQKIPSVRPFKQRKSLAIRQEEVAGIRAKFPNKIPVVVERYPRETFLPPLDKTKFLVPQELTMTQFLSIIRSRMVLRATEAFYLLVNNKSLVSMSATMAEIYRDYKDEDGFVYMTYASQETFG", "assay_type": "binding"}}, "note": "Values joined by “and” are separate entries in the source; they are usually repeats but may differ in a detail not shown here. Equal values may be shown once.", "data": [{"smiles": "CCCCCCC(Sc1nc(Cl)cc(Nc2nc(-c3ccc(C(=O)O)cc3)cs2)n1)C(=O)O", "note": "(centres unmarked) [compound 21]", "values": [{"measurement": "FP assay result (normalised FP signal)", "setting": "GABARAPL1; log10 concentration [M] -3.5", "value": "12.2578 and 12.5396 and 10.1444 and 7.186"}, {"measurement": "FP assay result (normalised FP signal)", "setting": "GABARAPL1; log10 concentration [M] -4", "value": "30.4333 and 31.4195 and 29.5879 and 26.0655"}, {"measurement": "FP assay result (normalised FP signal)", "setting": "GABARAPL1; log10 concentration [M] -4.5", "value": "65.2342 and 56.9215 and 57.9077 and 55.9352"}, {"measurement": "FP assay result (normalised FP signal)", "setting": "GABARAPL1; log10 concentration [M] -5", "value": "92.9905 and 91.2998 and 95.2448 and 93.4132"}, {"measurement": "FP assay result (normalised FP signal)", "setting": "GABARAPL1; log10 concentration [M] -5.5", "value": "96.2311 and 98.3445 and 98.9081 and 98.7672"}, {"measurement": "FP assay result (normalised FP signal)", "setting": "GABARAPL1; log10 concentration [M] -6", "value": "98.6263 and 98.7672 (2×) and 99.1899"}, {"measurement": "FP assay result (normalised FP signal)", "setting": "GABARAPL1; log10 concentration [M] -6.5", "value": "96.2311 and 93.5541 and 95.6675 and 93.2723"}, {"measurement": "FP assay result (normalised FP signal)", "setting": "GABARAPL1; log10 concentration [M] -7", "value": "99.049 and 98.3445 and 97.64 and 97.4991"}, {"measurement": "FP assay result (normalised FP signal)", "setting": "GABARAPL1; log10 concentration [M] -7.5", "value": "101.021 and 101.867 and 99.049 and 98.0627"}, {"measurement": "FP assay result (normalised FP signal)", "setting": "GABARAPL1; log10 concentration [M] -8", "value": "97.0764 and 96.0902 (2×) and 101.162"}, {"measurement": "FP assay result (normalised FP signal)", "setting": "GABARAPL1; log10 concentration [M] -8.5", "value": "95.6675 and 98.9081 and 96.9355 and 97.3582"}, {"measurement": "FP assay result (normalised FP signal)", "setting": "GABARAPL2; log10 concentration [M] -3.5", "value": "15.4589 and 21.9002 and 32.8502 and 25.1208"}, {"measurement": "FP assay result (normalised FP signal)", "setting": "GABARAPL2; log10 concentration [M] -4", "value": "44.4444 and 43.8003 and 53.7842 and 57.0048"}, {"measurement": "FP assay result (normalised FP signal)", "setting": "GABARAPL2; log10 concentration [M] -4.5", "value": "73.752 and 73.1079 and 75.0403 and 77.2947"}, {"measurement": "FP assay result (normalised FP signal)", "setting": "GABARAPL2; log10 concentration [M] -5", "value": "94.686 and 90.8213 and 95.0081 and 104.992"}, {"measurement": "FP assay result (normalised FP signal)", "setting": "GABARAPL2; log10 concentration [M] -5.5", "value": "97.2625 and 94.0419 and 105.958 and 102.093"}, {"measurement": "FP assay result (normalised FP signal)", "setting": "GABARAPL2; log10 concentration [M] -6", "value": "96.2963 and 93.0757 and 104.026 and 99.5169"}, {"measurement": "FP assay result (normalised FP signal)", "setting": "GABARAPL2; log10 concentration [M] -6.5", "value": "86.9565 and 89.8551 and 99.1948 and 93.0757"}, {"measurement": "FP assay result (normalised FP signal)", "setting": "GABARAPL2; log10 concentration [M] -7", "value": "90.4992 and 100.483 and 104.992 and 96.9404"}, {"measurement": "FP assay result (normalised FP signal)", "setting": "GABARAPL2; log10 concentration [M] -7.5", "value": "99.839 and 95.9742 and 100.161 and 104.026"}, {"measurement": "FP assay result (normalised FP signal)", "setting": "GABARAPL2; log10 concentration [M] -8", "value": "94.686 and 94.3639 and 101.127 and 98.5507"}, {"measurement": "FP assay result (normalised FP signal)", "setting": "GABARAPL2; log10 concentration [M] -8.5", "value": "91.4654 and 99.5169 and 96.2963 and 101.127"}, {"measurement": "FP assay result (normalised FP signal)", "setting": "GABARAP; log10 concentration [M] -3.5", "value": "6.476 and 7.14 and 8.634 and 10.7929"}, {"measurement": "FP assay result (normalised FP signal)", "setting": "GABARAP; log10 concentration [M] -4", "value": "22.9141 and 19.9253 and 28.8917 and 24.7406"}, {"measurement": "FP assay result (normalised FP signal)", "setting": "GABARAP; log10 concentration [M] -4.5", "value": "50.1453 and 47.6546 and 52.4699 and 48.8169"}, {"measurement": "FP assay result (normalised FP signal)", "setting": "GABARAP; log10 concentration [M] -5", "value": "88.9996 and 85.5127 and 92.3205 and 91.9884"}, {"measurement": "FP assay result (normalised FP signal)", "setting": "GABARAP; log10 concentration [M] -5.5", "value": "94.6451 and 91.9884 and 100.623 and 97.7999"}, {"measurement": "FP assay result (normalised FP signal)", "setting": "GABARAP; log10 concentration [M] -6", "value": "98.298 and 99.6264 and 101.287 and 99.7924"}, {"measurement": "FP assay result (normalised FP signal)", "setting": "GABARAP; log10 concentration [M] -6.5", "value": "94.479 and 92.8186 and 96.6376 and 97.7999"}, {"measurement": "FP assay result (normalised FP signal)", "setting": "GABARAP; log10 concentration [M] -7", "value": "96.3055 and 97.7999 and 100.955 and 96.9697"}, {"measurement": "FP assay result (normalised FP signal)", "setting": "GABARAP; log10 concentration [M] -7.5", "value": "97.3018 (2×) and 101.453 and 101.785"}, {"measurement": "FP assay result (normalised FP signal)", "setting": "GABARAP; log10 concentration [M] -8", "value": "99.9585 and 97.966 and 101.619 and 100.457"}, {"measurement": "FP assay result (normalised FP signal)", "setting": "GABARAP; log10 concentration [M] -8.5", "value": "96.1395 and 97.7999 and 97.966 and 99.2943"}, {"measurement": "FP assay result (normalised FP signal)", "setting": "LC3C; log10 concentration [M] -3.5", "value": "19.6537 and 17.9691 and 15.5358 and 11.7922"}, {"measurement": "FP assay result (normalised FP signal)", "setting": "LC3C; log10 concentration [M] -4", "value": "50.5381 and 45.8587 and 48.6664 and 46.0459"}, {"measurement": "FP assay result (normalised FP signal)", "setting": "LC3C; log10 concentration [M] -4.5", "value": "71.5021 and 72.0636 and 76.3687 and 74.6841"}, {"measurement": "FP assay result (normalised FP signal)", "setting": "LC3C; log10 concentration [M] -5", "value": "93.0276 and 94.7122 and 94.8994 and 95.6481"}, {"measurement": "FP assay result (normalised FP signal)", "setting": "LC3C; log10 concentration [M] -5.5", "value": "93.7763 and 94.3379 and 97.5199 and 95.8353"}, {"measurement": "FP assay result (normalised FP signal)", "setting": "LC3C; log10 concentration [M] -6", "value": "96.0225 and 101.076 and 101.638 and 98.4558"}, {"measurement": "FP assay result (normalised FP signal)", "setting": "LC3C; log10 concentration [M] -6.5", "value": "90.0328 and 92.0917 and 90.5943 and 93.2148"}, {"measurement": "FP assay result (normalised FP signal)", "setting": "LC3C; log10 concentration [M] -7", "value": "99.2045 and 96.9584 and 97.5199 and 97.8942"}, {"measurement": "FP assay result (normalised FP signal)", "setting": "LC3C; log10 concentration [M] -7.5", "value": "99.9532 and 98.8301 and 99.3917 and 101.825"}, {"measurement": "FP assay result (normalised FP signal)", "setting": "LC3C; log10 concentration [M] -8", "value": "96.2096 and 99.0173 and 101.263 and 99.2045"}, {"measurement": "FP assay result (normalised FP signal)", "setting": "LC3C; log10 concentration [M] -8.5", "value": "94.3379 and 96.2096 and 95.0866 and 96.0225"}]}]}
